Numbered stars: 1 amine (or outer) side, 2 acyl side, 3 side chain; on linkers, the order of the positions; unused ones are H or OH. Peptide text beside a SMILES is read from it. * marks the point of attachment. pNA = O=[N+]([O-])c1ccc(N*)cc1; Suc = O=C(CCC(=O)[*:2])[*:1]
Key:
[1] = Aqueous solubility of the compound; type: physicochemical; conditions: buffer
[2] = Apparent permeability across basolateral to apical side in human Caco2 cells; type: ADME, cell-based; conditions: Caco-2
[3] = Distribution coefficient, logD of the compound; type: physicochemical; conditions: octanol/water
[4] = Intrinsic clearance in human liver microsomes; type: ADME; conditions: read-out: CLH
[5] = Apparent permeability across apical to basolateral side in human Caco2 cells; type: ADME, cell-based; conditions: Caco-2
[6] = target: T1, Peptidyl-prolyl cis-trans isomerase A (Homo sapiens, UniProt P62937); experiment: Inhibition of fluorescent cyclosporin A binding to human CypA by TR-FRET assay
[7] = Unbound fraction in human plasma; type: ADME, cell-free
[8] = target: T1, Peptidyl-prolyl cis-trans isomerase A; experiment: Binding affinity to CypA (unknown origin) by fluorescence titration method

T1 sequence (P62937 whole entry): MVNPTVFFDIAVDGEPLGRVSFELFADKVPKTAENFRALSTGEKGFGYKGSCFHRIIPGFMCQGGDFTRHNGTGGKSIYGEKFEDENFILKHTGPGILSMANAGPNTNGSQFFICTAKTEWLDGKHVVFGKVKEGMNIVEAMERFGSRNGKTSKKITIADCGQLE

Structure (SMILES) | Kd [6] | also measured
C[C@H](NC(=O)CCC(=O)O)C(=O)NCC(=O)N1CCC[C@H]1C(=O)N[C@@H](Cc1ccccc1)C(=O)Nc1ccc([N+](=O)[O-])cc1 (Suc-AGPF-pNA) |  | Kd [8]: 135 µM
C[C@@]1(NC(=O)c2cc(Cl)cc(Cl)c2)COCCCCOC[C@@H](C(=O)O)NC(=O)[C@@H]2CCCN2C(=O)CNC1=O | > 600 µM | 
CC(=O)N[C@]1(C)COCCCCOC[C@@H](C(=O)O)NC(=O)[C@@H]2CCCN2C(=O)CNC1=O | > 600 µM | 
C[C@@]1(NC(=O)C2CCC2)COCCCCOC[C@@H](C(=O)O)NC(=O)[C@@H]2CCCN2C(=O)CNC1=O | 139 µM | 
C[C@@]1(NCC2CCOCC2)COCCCCOC[C@@H](C(=O)O)NC(=O)[C@@H]2CCCN2C(=O)CNC1=O | > 600 µM | 
C[C@@]1(NCc2ccccc2)COCCCCOC[C@@H](C(=O)O)NC(=O)[C@@H]2CCCN2C(=O)CNC1=O | > 600 µM | 
CCCCCCC(=O)N[C@]1(C)COCCCCOC[C@@H](C(=O)O)NC(=O)[C@@H]2CCCN2C(=O)CNC1=O | > 600 µM | 

Second part, led by results:

Kd [6] | Structure (SMILES) | also measured
10.5 µM | C[C@@]1(NCCc2ccccc2)COCCCCOC[C@@H](C(=O)O)NC(=O)[C@@H]2CCCN2C(=O)CNC1=O.Cl | solubility [1]: > 1000 µM; Papp B→A [2]: 0.17 ×10⁻⁶ cm/s; logD [3]: -1.8; microsomal CLint [4]: < 3 µL/min/mg; Papp A→B [5]: 0.1 ×10⁻⁶ cm/s; fraction unbound [7]: 1
> 600 µM | C[C@@]1(NCC2CCCC2)COCCCCOC[C@@H](C(=O)O)NC(=O)[C@@H]2CCCN2C(=O)CNC1=O | 
5.4 µM | C[C@@]1(NCC2CCCCCCC2)COCCCCOC[C@@H](C(=O)O)NC(=O)[C@@H]2CCCN2C(=O)CNC1=O | 
127 µM | C[C@@]1(N)COCCCCOC[C@@H](C(=O)O)NC(=O)[C@@H]2CCCN2C(=O)CNC1=O | 
> 600 µM | C[C@@]1(NCCCc2ccccc2)COCCCCOC[C@@H](C(=O)O)NC(=O)[C@@H]2CCCN2C(=O)CNC1=O | 
32 µM | C[C@@]1(NCC2CCCCC2)COCCCCOC[C@@H](C(=O)O)NC(=O)[C@@H]2CCCN2C(=O)CNC1=O | 

Source: ChEMBL document CHEMBL3862006, “Design and synthesis of peptide-based macrocyclic cyclophilin inhibitors” (Bioorg Med Chem Lett, 2016)
